A short description of data set [1]: Evaluation of molecule stability (alkali treatment, LC/MS residual rate). It counts as physicochemical. The conditions noted are these: 500 μM peptide plus equivalent of 1 M sodium hydroxide, 15° C., 20 minutes, LC/MS peak area. In outline: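 Cyclic peptide at 500 μM in water treated with an equivalent of 1 M NaOH for 20 minutes at 15° C. Residual rate is the total LC/MS peak area after treatment relative to that before treatment, set as 100%. Analysis on a C18 column at 45° C with ammonium formate pH 3 eluents and ESI detection.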

Another data set addresses human integrin αvβ5 (Homo sapiens, UniProt P06756+P18084). The experiment in a line: Evaluation of integrin binding property (surface plasmon resonance, Biacore 3000, immobilized cyclic peptide). In outline: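 Cyclic peptides amine-coupled to a CM5 chip via EDC/NHS, with a blank reference channel; integrin injected 10 min at 25 °C at 30, 100, 300 and 1,000 nM in HEPES pH 7.4, 150 mM NaCl, 5 mM MgCl2, then 30 min buffer flow, EDTA regeneration. Kd from reference-subtracted responses, graded by category.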

Where [2] appears, read: peptide immobilized on CM5 sensor chip, human integrin αvβ5 30-1,000 nM, 25° C., HEPES buffer with 5 mM magnesium chloride, read-out: Integrin binding property (dissociation constant).

The structures appear in SMILES notation. Like-named read-outs stand apart in the source and are kept apart here. Numbered stars: 1 amine (or outer) side, 2 acyl side, 3 side chain; on linkers, the order of the positions; unused ones are H or OH. Bridge positions count the residues as written; N and C are the ends. Square brackets hold non-standard residues; d marks the D form. Peptide text beside a SMILES is read from it. hCys = N[C@@H](CCS)C(=O)O; Orn = NCCC[C@H](N)C(=O)O; X1 = O=C(C[*:1])[*:2]; X2 = O=C(C[*:2])[*:1] Some results are limits rather than exact numbers.

human integrin αvβ5, sequence (P06756 31-889 limits assumed): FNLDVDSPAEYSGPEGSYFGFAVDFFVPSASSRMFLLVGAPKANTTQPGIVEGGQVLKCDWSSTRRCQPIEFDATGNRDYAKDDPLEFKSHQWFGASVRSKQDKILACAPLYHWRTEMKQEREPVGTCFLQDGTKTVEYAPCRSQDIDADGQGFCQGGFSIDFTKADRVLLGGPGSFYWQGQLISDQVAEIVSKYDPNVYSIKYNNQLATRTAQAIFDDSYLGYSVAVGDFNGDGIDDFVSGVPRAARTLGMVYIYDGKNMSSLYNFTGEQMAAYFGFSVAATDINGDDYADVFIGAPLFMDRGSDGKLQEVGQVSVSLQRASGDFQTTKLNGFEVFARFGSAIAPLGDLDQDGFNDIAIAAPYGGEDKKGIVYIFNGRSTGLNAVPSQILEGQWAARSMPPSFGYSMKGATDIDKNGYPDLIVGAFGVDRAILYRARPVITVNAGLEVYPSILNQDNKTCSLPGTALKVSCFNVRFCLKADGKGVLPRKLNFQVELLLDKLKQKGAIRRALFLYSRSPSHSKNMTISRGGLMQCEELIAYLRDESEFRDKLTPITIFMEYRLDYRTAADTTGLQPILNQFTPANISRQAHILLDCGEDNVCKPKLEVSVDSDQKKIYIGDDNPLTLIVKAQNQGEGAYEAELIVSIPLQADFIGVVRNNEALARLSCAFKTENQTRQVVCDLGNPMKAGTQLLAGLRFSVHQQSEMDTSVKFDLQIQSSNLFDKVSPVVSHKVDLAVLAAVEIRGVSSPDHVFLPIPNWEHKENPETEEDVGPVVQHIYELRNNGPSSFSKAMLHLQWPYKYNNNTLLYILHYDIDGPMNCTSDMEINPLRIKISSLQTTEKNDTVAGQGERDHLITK
human integrin αvβ5, sequence (P06756 891-1048 partner limits assumed): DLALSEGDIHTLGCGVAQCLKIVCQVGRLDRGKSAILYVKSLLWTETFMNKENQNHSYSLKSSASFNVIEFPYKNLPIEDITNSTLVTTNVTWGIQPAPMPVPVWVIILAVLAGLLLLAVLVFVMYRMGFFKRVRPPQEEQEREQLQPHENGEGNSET
human integrin αvβ5, sequence (P18084 24-799): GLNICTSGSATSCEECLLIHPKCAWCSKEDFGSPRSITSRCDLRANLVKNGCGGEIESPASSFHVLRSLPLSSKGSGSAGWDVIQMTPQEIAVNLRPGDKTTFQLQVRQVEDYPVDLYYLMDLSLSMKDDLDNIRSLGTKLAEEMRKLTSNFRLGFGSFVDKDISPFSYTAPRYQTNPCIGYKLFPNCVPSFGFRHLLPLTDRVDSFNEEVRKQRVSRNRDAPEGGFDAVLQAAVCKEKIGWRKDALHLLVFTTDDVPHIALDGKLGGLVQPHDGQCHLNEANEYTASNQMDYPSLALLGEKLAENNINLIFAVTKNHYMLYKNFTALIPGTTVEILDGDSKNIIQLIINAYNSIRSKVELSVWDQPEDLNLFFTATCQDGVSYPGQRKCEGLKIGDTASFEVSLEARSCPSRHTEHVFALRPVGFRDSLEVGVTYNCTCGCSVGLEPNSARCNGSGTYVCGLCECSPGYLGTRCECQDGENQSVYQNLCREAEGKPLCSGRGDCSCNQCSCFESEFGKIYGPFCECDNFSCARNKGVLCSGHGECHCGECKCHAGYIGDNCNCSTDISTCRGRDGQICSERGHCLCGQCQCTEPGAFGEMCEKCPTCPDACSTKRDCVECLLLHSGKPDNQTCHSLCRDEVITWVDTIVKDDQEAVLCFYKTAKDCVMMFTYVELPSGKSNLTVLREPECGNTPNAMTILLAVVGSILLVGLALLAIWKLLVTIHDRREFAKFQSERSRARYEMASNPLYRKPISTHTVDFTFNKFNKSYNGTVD

Turning to `N=C(N)NCCC[C@@H]1NC(=O)[C@@H]2CCCNC(=O)CSCC[C@H](NC(=O)[C@H](CC(=O)O)NC(=O)CNC1=O)C(=O)N[C@@H](Cc1ccccc1)C(=O)N[C@H](C(=O)N[C@@H](CCCCN)C(=O)N[C@@H](CCCCN)C(=O)N[C@@H](CCCCN)C(=O)O)CCSCC(=O)N[C@@H](CC(=O)O)C(=O)N2` [Cyclic peptide 39] ({CH2CO}-D[Orn]RGD[hCys]F[hCys]KKK-OH; linker 2-6 via X2; thioether N-8), the “Molecule stability (cyclic peptide residual rate)” value in data set [1] is reported as “A (The residual rate of the cyclic peptide is 70% or more.)”. The Kd at human integrin αvβ5 (setting [2]) is below 50 nM.

On to `N=C(N)NCCC[C@@H]1NC(=O)[C@@H]2CCCNC(=O)CSCC[C@H](NC(=O)[C@H](CC(=O)O)NC(=O)CNC1=O)C(=O)N[C@@H](Cc1ccccc1)C(=O)N[C@H](C(=O)N[C@@H](CCCCN)C(=O)N[C@@H](CCCCN)C(=O)N[C@@H](CCCCN)C(=O)O)CCSCC(=O)N[C@@H](CCC(=O)O)C(=O)N2` [Cyclic peptide 40] ({CH2CO}-E[Orn]RGD[hCys]F[hCys]KKK-OH; linker 2-6 via X2; thioether N-8), for which the “Molecule stability (cyclic peptide residual rate)” value in data set [1] is given as “A (The residual rate of the cyclic peptide is 70% or more.)”. Moreover, at human integrin αvβ5 (setting [2]), the Kd is below 50 nM.

As for `CC(C)[C@@H]1NC(=O)CSCC[C@@H](C(=O)N[C@@H](CCCCN)C(=O)N[C@@H](CCCCN)C(=O)N[C@@H](CCCCN)C(=O)O)NC(=O)[C@H](Cc2ccccc2)NC(=O)[C@@H]2CCCNC(=O)CSCC[C@H](NC1=O)C(=O)N[C@@H](CCCNC(=N)N)C(=O)NCC(=O)N[C@@H](CC(=O)O)C(=O)N2` [Cyclic peptide 41] ({CH2CO}-V[hCys]RGD[Orn]F[hCys]KKK-OH; linker 2-6 via X1; thioether N-8), the “Molecule stability (cyclic peptide residual rate)” value in data set [1] is given as “A (The residual rate of the cyclic peptide is 70% or more.)”. At human integrin αvβ5 (setting [2]), the Kd lay within 50 to 100 nM.

For the molecule `N=C(N)NCCC[C@@H]1NC(=O)[C@@H]2CCSCC(=O)NCCC[C@H](NC(=O)[C@H](CC(=O)O)NC(=O)CNC1=O)C(=O)N[C@@H](Cc1ccccc1)C(=O)N[C@H](C(=O)N[C@@H](CCCCN)C(=O)N[C@@H](CCCCN)C(=O)N[C@@H](CCCCN)C(=O)O)CCSCC(=O)N[C@@H](CC(=O)O)C(=O)N2` [Cyclic peptide 42] ({CH2CO}-D[hCys]RGD[Orn]F[hCys]KKK-OH; linker 2-6 via X1; thioether N-8), in data set [1], the “Molecule stability (cyclic peptide residual rate)” value is “A (The residual rate of the cyclic peptide is 70% or more.)”. The Kd at human integrin αvβ5 (setting [2]) was below 50 nM.

On to `N=C(N)NCCC[C@@H]1NC(=O)[C@@H]2CCSCC(=O)NCCC[C@H](NC(=O)[C@H](CC(=O)O)NC(=O)CNC1=O)C(=O)N[C@@H](Cc1ccccc1)C(=O)N[C@H](C(=O)N[C@@H](CCCCN)C(=O)N[C@@H](CCCCN)C(=O)N[C@@H](CCCCN)C(=O)O)CCSCC(=O)N[C@@H](CCC(=O)O)C(=O)N2` [Cyclic peptide 43] ({CH2CO}-E[hCys]RGD[Orn]F[hCys]KKK-OH; linker 2-6 via X1; thioether N-8), for which the “Molecule stability (cyclic peptide residual rate)” value in data set [1] is “A (The residual rate of the cyclic peptide is 70% or more.)”. Further, the Kd on human integrin αvβ5 (setting [2]) was below 50 nM.

As for `CC(C)[C@@H]1NC(=O)CSCC[C@@H](C(=O)N[C@@H](C)C(=O)N[C@@H](CCCCN)C(=O)N[C@@H](CCCCN)C(=O)N[C@@H](CCCCN)C(=O)O)NC(=O)[C@H](Cc2ccccc2)NC(=O)[C@@H]2CCCCNC(=O)CSCC[C@H](NC1=O)C(=O)N[C@@H](CCCNC(=N)N)C(=O)NCC(=O)N[C@@H](CC(=O)O)C(=O)N2` [Cyclic peptide 44] ({CH2CO}-V[hCys]RGDKF[hCys]AKKK-OH; linker 2-6 via X1; thioether N-8), the “Molecule stability (cyclic peptide residual rate)” value in data set [1] is reported as “A (The residual rate of the cyclic peptide is 70% or more.)”. Further, the Kd at human integrin αvβ5 (setting [2]) was below 50 nM.

In the case of `C[C@H](NC(=O)[C@@H]1CCSCC(=O)N[C@@H](CC(=O)O)C(=O)N[C@H]2CCSCC(=O)NCCCC[C@H](NC(=O)[C@H](CC(=O)O)NC(=O)CNC(=O)[C@H](CCCNC(=N)N)NC2=O)C(=O)N[C@@H](Cc2ccccc2)C(=O)N1)C(=O)N[C@@H](CCCCN)C(=O)N[C@@H](CCCCN)C(=O)N[C@@H](CCCCN)C(=O)O` [Cyclic peptide 45] ({CH2CO}-D[hCys]RGDKF[hCys]AKKK-OH; linker 2-6 via X1; thioether N-8), in data set [1], the “Molecule stability (cyclic peptide residual rate)” value is “A (The residual rate of the cyclic peptide is 70% or more.)”. The Kd on human integrin αvβ5 (setting [2]) was below 50 nM.

On to `C[C@H](NC(=O)[C@@H]1CCSCC(=O)N[C@@H](CCC(=O)O)C(=O)N[C@H]2CCSCC(=O)NCCCC[C@H](NC(=O)[C@H](CC(=O)O)NC(=O)CNC(=O)[C@H](CCCNC(=N)N)NC2=O)C(=O)N[C@@H](Cc2ccccc2)C(=O)N1)C(=O)N[C@@H](CCCCN)C(=O)N[C@@H](CCCCN)C(=O)N[C@@H](CCCCN)C(=O)O` [Cyclic peptide 46] ({CH2CO}-E[hCys]RGDKF[hCys]AKKK-OH; linker 2-6 via X1; thioether N-8), for which, in data set [1], the “Molecule stability (cyclic peptide residual rate)” value was “A (The residual rate of the cyclic peptide is 70% or more.)”. On human integrin αvβ5 (setting [2]), the Kd is below 50 nM.

With `C[C@H](NC(=O)[C@@H]1CCSCC(=O)N[C@@H](CCC(=O)O)C(=O)N[C@H]2CCSCC(=O)NCCC[C@H](NC(=O)[C@H](CC(=O)O)NC(=O)CNC(=O)[C@H](CCCNC(=N)N)NC2=O)C(=O)N[C@@H](Cc2ccccc2)C(=O)N1)C(=O)N[C@@H](CCCCN)C(=O)N[C@@H](CCCCN)C(=O)N[C@@H](CCCCN)C(=O)O` [Cyclic peptide 47] ({CH2CO}-E[hCys]RGD[Orn]F[hCys]AKKK-OH; linker 2-6 via X1; thioether N-8), the “Molecule stability (cyclic peptide residual rate)” value in data set [1] is “A (The residual rate of the cyclic peptide is 70% or more.)”. For the same molecule, the Kd on human integrin αvβ5 (setting [2]) is below 50 nM.

For `C[C@H](N)C(=O)N[C@H]1CSSC[C@@H](C(=O)NCC(=O)N[C@@H](CCCCN)C(=O)N[C@@H](CCCCN)C(=O)N[C@@H](CCCCN)C(=O)O)NC(=O)[C@H](Cc2ccccc2)NC(=O)[C@@H]2CSSC[C@H](NC(=O)[C@H](CC(=O)O)NC1=O)C(=O)N[C@@H](CCCNC(=N)N)C(=O)NCC(=O)N[C@@H](CC(=O)O)C(=O)N2` [Cyclic peptide 49, ACDCRGDCFCGKKK, reference compound] (H-ACDCRGDCFCGKKK-OH; disulfide 2-10, 4-8), the “Molecule stability (cyclic peptide residual rate)” value in data set [1] was “D (The residual rate of the cyclic peptide is less than 30%.)”. Further, at human integrin αvβ5, the Kd was below 50 nM.

For the origin of these results see patent publication US12624067B2, “Cyclic peptide, cell scaffold material, cell separating material, and medium” (FUJIFILM Corporation, priority 2019, dated 2026).
